{
  "source": "patent US12227491B2",
  "about": "“EGFR inhibitors” (INVENTISBIO CO., LTD., priority 2018, dated 2025)",
  "key": {"wild-type EGFR (WT-EGFR)": {"biological_target": "wild-type EGFR (WT-EGFR) (Homo sapiens, UniProt P00533)", "sequence (P00533 25-1210)": "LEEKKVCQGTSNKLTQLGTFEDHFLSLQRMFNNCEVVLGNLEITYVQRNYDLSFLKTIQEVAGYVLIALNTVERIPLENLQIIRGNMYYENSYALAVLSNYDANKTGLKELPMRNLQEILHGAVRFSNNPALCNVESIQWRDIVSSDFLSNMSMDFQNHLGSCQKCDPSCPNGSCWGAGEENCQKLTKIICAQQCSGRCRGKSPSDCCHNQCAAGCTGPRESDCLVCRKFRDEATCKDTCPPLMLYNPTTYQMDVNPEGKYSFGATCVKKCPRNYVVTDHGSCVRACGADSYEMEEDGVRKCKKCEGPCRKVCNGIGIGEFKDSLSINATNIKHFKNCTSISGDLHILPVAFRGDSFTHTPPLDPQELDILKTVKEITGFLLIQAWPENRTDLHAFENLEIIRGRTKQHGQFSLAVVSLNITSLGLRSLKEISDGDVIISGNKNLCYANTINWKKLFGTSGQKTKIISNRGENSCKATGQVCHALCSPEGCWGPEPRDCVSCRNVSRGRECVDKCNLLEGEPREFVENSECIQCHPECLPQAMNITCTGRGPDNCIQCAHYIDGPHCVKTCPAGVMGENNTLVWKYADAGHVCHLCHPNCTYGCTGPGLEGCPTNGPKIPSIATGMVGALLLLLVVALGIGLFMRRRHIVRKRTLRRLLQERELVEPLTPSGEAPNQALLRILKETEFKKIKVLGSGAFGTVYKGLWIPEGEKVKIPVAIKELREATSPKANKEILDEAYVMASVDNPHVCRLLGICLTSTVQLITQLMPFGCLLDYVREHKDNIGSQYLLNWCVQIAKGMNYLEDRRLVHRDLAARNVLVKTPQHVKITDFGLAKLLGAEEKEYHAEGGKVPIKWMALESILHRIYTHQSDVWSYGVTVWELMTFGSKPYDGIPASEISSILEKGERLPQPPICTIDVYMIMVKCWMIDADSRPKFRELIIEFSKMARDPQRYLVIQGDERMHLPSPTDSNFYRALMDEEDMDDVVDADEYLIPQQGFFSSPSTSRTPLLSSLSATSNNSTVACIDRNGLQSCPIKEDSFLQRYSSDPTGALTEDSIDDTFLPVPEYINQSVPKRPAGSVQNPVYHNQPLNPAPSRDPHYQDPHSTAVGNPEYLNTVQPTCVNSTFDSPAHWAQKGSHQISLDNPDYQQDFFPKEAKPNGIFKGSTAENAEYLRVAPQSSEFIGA", "conditions": "major metabolite of AZD9291; cited from earlier work"}, "[1]": {"assay": "Solid-state stability of Form I under thermal treatment and mechanical grinding (XRPD)", "format": "physicochemical", "description": "POWDER X-RAY DIFFRACTION (XRPD): The solid samples from screening were examined using X-ray diffractometer (Bruker D8 advance). The system is equipped with LynxEye detector. The samples were scanned from 3 to 40° 2θ, at a step size 0.02° 2θ. The tube voltage and current were 40 KV and 40 mA, respectively. The sample was transferred from sample container onto zero background XRD-holder and gently ground.\nDSC ANALYSIS: DSC analysis was conducted on a TA Instruments Q200. The calibration standard was indium. A sample in weight was placed into a TA DSC pan, and weight accurately recorded. Crimped pans were used for analysis and the samples were heated under nitrogen (50 mi/min) at a rate of 10° C./min, up to a final temperature."}, "[2]": {"assay": "Hygroscopicity of crystalline Form I on storage at 25° C., 80% relative humidity", "format": "physicochemical"}, "NSCLC patients": {"system": "NSCLC patients", "conditions": "cited from earlier work"}},
  "note": "Like-named read-outs stand apart in the source and are kept apart here.",
  "data": [
    {"smiles": "C=CC(=O)Nc1cc(Nc2nccc(-c3c[nH]c4ccccc34)n2)c(OC)cc1N(C)CCN(C)C", "note": "[AZ5104]", "values": [
      {"measurement": "inhibitory effect on wild-type EGFR", "setting": "wild-type EGFR (WT-EGFR)", "value": "strong inhibitory effect"}
    ]},
    {"smiles": "C=CC(=O)Nc1cc(Nc2nccc(-c3cn(CC(F)(F)F)c4ccccc34)n2)c(OC)cc1N(C)CCN(C)C", "note": "[Compound 5, N-(2-((2-(dimethylamino)ethyl)(methyl)amino)-4-methoxy-5-((4-(1-(2,2,2-trifluoroethyl)-1H-indol-3-yl)pyrimidin-2-yl)amino)phenyl)acrylamide monomesylate]", "values": [
      {"measurement": "crystallinity after mechanical grinding", "setting": "[1]; Form I grinded mechanically", "value": "some loss of crystallinity"},
      {"measurement": "solid form after thermal treatment", "setting": "[1]; crystals heated in DSC cells to 220° C., then immediately placed into ice (quench), XRPD", "value": "converted into an amorphous form"},
      {"measurement": "increase in weight upon storing", "setting": "[2]; 25° C., relative humidity of 80%", "value": "only negligible increase in weight"},
      {"measurement": "hygroscopicity", "setting": "[2]; crystalline Form I", "value": "non-hygroscopic"}
    ]},
    {"smiles": "C#Cc1cccc(Nc2ncnc3cc(OCCOC)c(OCCOC)cc23)c1", "note": "[erlotinib]", "values": [
      {"measurement": "share of patients in whom the drug has effect", "setting": "NSCLC patients; Asian NSCLC patients", "value": "about 35%"},
      {"measurement": "share of patients in whom the drug has effect", "setting": "NSCLC patients; Caucasian patients with NSCLC", "value": "about 10%"}
    ]},
    {"smiles": "COc1cc2ncnc(Nc3ccc(F)c(Cl)c3)c2cc1OCCCN1CCOCC1", "note": "[gefitinib]", "values": [
      {"measurement": "share of patients in whom the drug has effect", "setting": "NSCLC patients; Asian NSCLC patients", "value": "about 35%"},
      {"measurement": "share of patients in whom the drug has effect", "setting": "NSCLC patients; Caucasian patients with NSCLC", "value": "about 10%"}
    ]}
  ]
}
